What was measured:
Assay type in all cases: cell-based
[1] = system: AR protein; assay: Western blot of AR protein after Hsp90 inhibitor treatment of TNBC cell lines; settings: 50 nM, 8 hrs
Protocol: (§1) TNBC cell lines were pre-treated for 2 hours with dexamethasone (100 nM) followed by ganetespib (50 nM). Protein and transcript levels were analyzed using Western blot and qRT-PCR respectively.

[2] = system: GR-α translational isoforms; assay: Western blot of GR protein after Hsp90 inhibitor treatment of TNBC cell lines; settings: 50 nM, 8 hrs
Protocol: as §1

[3] = system: AR target gene TMPRSS2; assay: qRT-PCR of AR target gene transcript
[4] = system: GR target genes in MDA-MB-231; assay: Multiplex RT-PCR assay of GR target genes; settings: MDA-MB-231, Veh/Veh = 1
Protocol: The multiplex RT-PCR assay was performed to discover GR target genes that are affected by HSP90 inhibitor treatment of a triple-negative breast cancer cell line, MDA-MB-231.

[5] = system: GR target gene transcripts (SGK1 and MKP1/DUSP1); assay: qRT-PCR of GR target gene transcripts in TNBC cell lines; settings: 100 nM dex 2 hours, then ganetespib 50 nM
Protocol: as §1
This induction was reduced following ganetespib (50 nM) treatment.

CCNC(=O)c1noc(-c2cc(C(C)C)c(O)cc2O)c1-c1ccc(CN2CCOCC2)cc1 [NVP-AUY922] was tested. Which AR protein level [1] did it give?
The AR protein level was “depleted”.

And the “GR-α translational isoforms protein level” value [2]?
Its value is “depleted”.

For C[C@]1(O)CC[C@H]2[C@@H]3CCC4=CC(=O)CCC4=C3C=C[C@@]21C [R1881], which “Expression of the AR target gene TMPRSS2” value ([3]; R1881 1 nM pre-treatment for 2 hours) is on record?
Its value is “induced”.

With C[C@@H]1C[C@H]2[C@@H]3CCC4=CC(=O)C=C[C@]4(C)[C@@]3(F)[C@@H](O)C[C@]2(C)[C@@]1(O)C(=O)CO [dexamethasone] as the compound, how does the ANGPTL4 transcript level [4] read?
The ANGPTL4 transcript level was 8.5.

What about the BCL6 transcript level [4] of the same compound?
The BCL6 transcript level was 2.6.

And the CALCR transcript level [4]?
The CALCR transcript level was 4.3.

And the CEBPB transcript level [4]?
Its CEBPB transcript level is 4.1.

And the DDIT4 transcript level [4]?
The DDIT4 transcript level was 2.9.

And the DUSP1 transcript level [4]?
Its DUSP1 transcript level is 3.7.

What about the EDN1 transcript level [4] of the same compound?
The EDN1 transcript level was 2.3.

And the ERRFI1 transcript level [4]?
The ERRFI1 transcript level was 3.4.

What about the FKBP5 transcript level [4] of the same compound?
The FKBP5 transcript level was 15.5.

And the GLUL transcript level [4]?
Its GLUL transcript level is 1.5.

What about the IL6R transcript level [4] of the same compound?
Its IL6R transcript level is 1.9.

And the KLF9 transcript level [4]?
Its KLF9 transcript level is 9.5.

What about the KLF13 transcript level [4] of the same compound?
The KLF13 transcript level was 2.5.

And the LOX transcript level [4]?
The LOX transcript level was 2.4.

What about the MT1E transcript level [4] of the same compound?
Its MT1E transcript level is 2.7.

What about the MT2A transcript level [4] of the same compound?
The MT2A transcript level was 3.0.

What about the NFKBIA transcript level [4] of the same compound?
The NFKBIA transcript level was 2.0.

What about the PER1 transcript level [4] of the same compound?
The PER1 transcript level was 12.7.

And the RHOB transcript level [4]?
Its RHOB transcript level is 5.6.

What about the SESN1 transcript level [4] of the same compound?
Its SESN1 transcript level is 1.4.

What about the SGK1 transcript level [4] of the same compound?
The SGK1 transcript level was 2.9.

And the SLC19A2 transcript level [4]?
Its SLC19A2 transcript level is 2.0.

What about the SLC22A5 transcript level [4] of the same compound?
Its SLC22A5 transcript level is 1.3.

And the TNFAIP3 transcript level [4]?
Its TNFAIP3 transcript level is 2.2.

What about the TSC22D3 transcript level [4] of the same compound?
Its TSC22D3 transcript level is 22.8.

And the USP2 transcript level [4]?
Its USP2 transcript level is 3.1.

And the XDH transcript level [4]?
The XDH transcript level was 1.3.

What about the ZFP36 transcript level [4] of the same compound?
The ZFP36 transcript level was 4.3.

What does the source list for CC(C)c1cc(-c2n[nH]c(=O)n2-c2ccc3c(ccn3C)c2)c(O)cc1O [ganetespib]?
Dexamethasone induction of GR target gene transcripts (SGK1 and MKP1/DUSP1) [5]: reduced; AR protein level [1]: depleted; GR-α translational isoforms protein level [2]: depleted; Androgen-induced expression of the AR target gene TMPRSS2 ([3]; R1881 1 nM, concomitant ganetespib 50 nM): decreased
